{
  "source": "paper PMC9603521",
  "about": "“WYBQ-4: a New Bactericidal Agent against Methicillin-Resistant Staphylococcus aureus” (Microbiology Spectrum, 2022)",
  "key": {"PBP2a [1]": {"tested_on": "PBP2a", "conditions": "cited from earlier work; for Kd: read-out: ks"}, "MSSA ATCC 29213": {"tested_on": "MSSA ATCC 29213", "experiment": "Postantibiotic effect (viable plate count)", "type": "cell-based, Staphylococcus aureus", "conditions": "1 h exposure", "method": "The postantibiotic effect (PAE) of WYBQ-4 against MSSA 29213 was determined in MHB agar using the viable plate count method ([39]). […] After incubation at 37°C for 1 h, WYBQ-4 was removed by centrifugation and washing with phosphate-buffered saline (PBS). Subsequently, fresh MHB medium was added to resuspend the bacteria, and the mixture was incubated at 37°C with shaking. The number of colonies was counted by taking 10 μL of bacteria at 1-h intervals and applying them to BHI agar plates after appropriate dilution. PAE duration was calculated as follows: time (h) for bacteria to return to log-phase growth after drug treatment – time (h) for the control group to return to log-phase growth ([40])."}, "MRSA USA300 [2]": {"tested_on": "MRSA USA300", "experiment": "Mouse systemic infection model", "type": "in vivo, mice", "conditions": "USA300 5 × 10^7 CFU, 150 mg/kg, tail intravenous injection at 0 and 3 h, 7-day", "method": "The S. aureus-induced systemic infection model of mice (6-week-old female C57BL/6J mice) was established as previously described ([46]). […] The mice infected in the same way were treated with physiological saline as an infection control group. The mock group was not infected with S. aureus, and the 7-day mortality of the mice in each group was calculated."}, "MRSA USA300 [3]": {"tested_on": "MRSA USA300", "experiment": "TEM analysis of cell morphology / division defects", "type": "cell-based, Staphylococcus aureus", "conditions": "4 μg/mL (1/2× MIC), 3 h", "method": "MRSA USA300 was cultured overnight, diluted (1:100) into 20 mL of Trypticase soy broth (TSB) medium, and incubated at 30°C with shaking until the optical density at 600 nm (OD600) reached 0.3. […] Bacterial cells treated with 4 μg/mL ceftaroline fosamil (1/2 of their respective MIC) served as a control group. Untreated S. aureus served as a negative control. Bacteria were collected and washed in PBS and resuspended in 4% (vol/vol) glutaraldehyde fixation overnight. The fixed samples were further processed, and morphological changes in S. aureus were observed by TEM (JSM-7900F; JEOL, Japan)."}, "MRSA USA300 [4]": {"tested_on": "MRSA USA300", "experiment": "Mouse lung infection model, survival", "type": "in vivo, mice", "conditions": "mouse pneumonia, USA300 2 × 10^8 CFU, 12-h intervals, within 72 h", "method": "The animal experiments were performed using 6-week-old male C57BL/6J mice, and the mouse model of lung infection caused by MRSA USA300 was established as previously described ([43], [44]). For the survival rate, mice (10 per group) were infected with MRSA USA300 (2 × 10^8 CFU per mouse). After 2 h of infection, mice were given WYBQ-4 via subcutaneous injection and reinjected at 12-h intervals, whereas mice were treated with ceftaroline fosamil at the same doses and served as positive controls. Mice injected with only MRSA USA300 were used as a negative control. Survival of mice was recorded within 72 h, and survival rates were calculated."}, "MRSA USA300 [5]": {"tested_on": "MRSA USA300", "experiment": "Mouse lung infection model, bacterial load and histopathology", "type": "in vivo, mice", "conditions": "mouse pneumonia, USA300; after treatment", "method": "The mice were challenged with 1 × 10^8 CFU of MRSA USA300 to assess bacterial load and pathological changes. The dose and manner of administration in mice were consistent with the survival experiments. In addition, the mice treated with ceftaroline fosamil at 75 and 37.5 mg/kg were used as control groups. At 48 h postinfection, mice were euthanized, and the left lungs were aseptically removed, weighed, and homogenized. Then, the lung tissues were homogenized and serially diluted for CFU counts. The right lungs were fixed with 10% formalin, embedded in paraffin, thin-sectioned, subjected to conventional hematoxylin and eosin (H&E) staining, and then observed using an optical microscope."}, "PBP2a [6]": {"molecular_target": "PBP2a (Staphylococcus aureus, UniProt P07944)", "sequence (P07944 whole entry)": "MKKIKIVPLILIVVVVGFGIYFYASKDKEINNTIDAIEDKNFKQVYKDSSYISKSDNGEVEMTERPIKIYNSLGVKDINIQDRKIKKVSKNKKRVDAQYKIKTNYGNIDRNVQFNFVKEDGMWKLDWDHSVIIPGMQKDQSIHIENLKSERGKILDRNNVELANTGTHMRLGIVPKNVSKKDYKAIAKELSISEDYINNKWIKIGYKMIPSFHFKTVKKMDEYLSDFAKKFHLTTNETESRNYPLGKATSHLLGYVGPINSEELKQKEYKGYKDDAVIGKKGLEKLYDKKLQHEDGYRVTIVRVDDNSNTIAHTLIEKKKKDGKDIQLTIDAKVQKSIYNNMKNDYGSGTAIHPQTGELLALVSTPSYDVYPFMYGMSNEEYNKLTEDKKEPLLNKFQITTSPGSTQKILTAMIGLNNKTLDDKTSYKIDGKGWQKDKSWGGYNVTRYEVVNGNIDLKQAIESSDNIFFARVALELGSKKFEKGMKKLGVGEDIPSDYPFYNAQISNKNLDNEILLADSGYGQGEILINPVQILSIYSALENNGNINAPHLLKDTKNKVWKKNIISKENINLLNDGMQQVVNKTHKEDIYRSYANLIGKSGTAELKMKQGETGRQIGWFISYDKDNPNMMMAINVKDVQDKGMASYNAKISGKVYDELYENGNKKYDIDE", "experiment": "PBP2a acylation kinetics, nitrocefin competition assay", "type": "biochemical, MRSA", "method": "Please refer to the supplemental material for the kinetic parameters of the interaction between WYBQ-4 and PBP2a and the determination of the rate of diacylation.\nSupplementary Method. 1 Determination of the Kinetic Parameters for Interactions of […]\nDetermination of the kinetic parameters for interactions of WYBQ-4 with PBP2a The kinetic parameters of the interaction of WYBQ-4 with PBP2a were determined as previously described (1). The kinetics of the reaction between PBP2a of MRSA with WYBQ-4 was studied in homogeneous aqueous solution at 37℃ in 25 mM Hepes buffer, pH 7.0, containing 1 M NaCl and the inhibition of PBPs by β-lactams follows this kinetic scheme. […]\nIn this minimal scheme, E represents PBP2a, EI is the noncovalent preacylation complex, E-I is the covalent acyl-enzyme species, and P denotes the product of E-I hydrolysis and restoration of […]\nThe typical reactions of β-lactam could be monitored through competition with a chromophoric β-lactam, nitrocefin, or directly in certain cases by fluorescence intensity of protein. In this study, it is proposed to determine the secondary rate constants (k2/Ks) of WYBQ-4 by nitrocefin competition assay. The reaction was conducted in the above buffer, and the reaction system contained PBP2a (2.5 μM) and different concentrations of nitrocefin (20-120 μM). The reaction was carried out in a UV spectrophotometer (PERSEE T600, China) and the change in absorbance at 500 nm was […]\nApparent first-order rate constants for acylation by nitrocefin were determined by fitting the change in absorbance with time to eqn. (1):\nA = A0 + ∆εn E0[(1 − exp (−kn∗ t)] + k0N0∆εn Ε0t (1) where A0 is the initial absorbance at 500 nm, ∆εn the change in molar absorption coefficient on nitrocefin hydrolysis (15900 M-1cm-1), E0 the initial enzyme concentration, N0 the initial nitrocefin concentration, kn* the (burst) pseudo-first-order rate constant for acylation of PBP2a by nitrocefin, and k0 the (line) second-order rate constant of a non-specific hydrolysis of nitrocefin in the presence of PBP2a. The second-order rate constants (kn) for acylation were calculated by fitting a plot of the apparent first-order rate constants (kn*) against the concentration of nitrocefin using a linear least-squares method.\nSubsequently, nitrocefin (100 μM) was used as a reporter molecule to determine the apparent first-order rate constants for acylation of WYBQ-4 at different concentrations (0-500 μM) in competition assays. In this case, the change in absorbance at 500 nm with time was fitted to eqn.\nΑ = A + ∆ε E (k∗ ∕ (k∗ + k∗)(1 − exp (−(k∗ + k∗)t)) + k N ∆ε Ε t (2) […]"}, "PBP2a [7]": {"tested_on": "PBP2a", "conditions": "as reported; cited from earlier work"}},
  "note": "Like-named read-outs stand apart in the source and are kept apart here.",
  "data": [
    {"smiles": "CC1(C)S[C@@H]2[C@H](NC(=O)[C@H](N)c3ccccc3)C(=O)N2[C@H]1C(=O)O", "note": "[Ampicillin]", "values": [
      {"measurement": "k2", "setting": "PBP2a [1]; PBP2a", "value": "3.4 ± 0.1", "unit": "s^–1 × 10^3"},
      {"measurement": "k2/ks", "setting": "PBP2a [1]; PBP2a", "value": "5.0 ± 1.0", "unit": "M^–1s^–1"},
      {"measurement": "k3", "setting": "PBP2a [1]; PBP2a", "value": "3.2 ± 0.1", "unit": "s^–1 × 10^6"},
      {"measurement": "Kd", "setting": "PBP2a [1]; PBP2a", "value": "668 ± 124", "unit": "µM"}
    ]},
    {"smiles": "CO[C@@]1(NC(=O)C(C(=O)O)c2ccc(O)cc2)C(=O)N2C(C(=O)O)=C(CSc3nnnn3C)CO[C@@H]21", "note": "(some centres unmarked) [moxalactam, reference compound]", "values": [
      {"measurement": "PAE", "setting": "MSSA ATCC 29213; 2× MIC", "value": 1, "unit": "h"},
      {"measurement": "PAE", "setting": "MSSA ATCC 29213; 8× MIC", "value": 2.5, "unit": "h"},
      {"measurement": "survival rate", "setting": "MRSA USA300 [2]", "value": 50, "unit": "%"}
    ]},
    {"smiles": "CCO/N=C(\\C(=O)N[C@@H]1C(=O)N2C(C(=O)[O-])=C(Sc3nc(-c4cc[n+](C)cc4)cs3)CS[C@H]12)c1nsc(N)n1", "note": "[Ceftaroline]", "values": [
      {"measurement": "Percentage of defective cells (thin cell walls)", "setting": "MRSA USA300 [3]", "value": 71.9, "unit": "%"},
      {"measurement": "k2/ks", "setting": "PBP2a [1]; PBP2a acylation", "value": "4,500 ± 640 M^–1s^–1"},
      {"measurement": "k2/ks", "setting": "PBP2a [1]; PBP2a acylation, listed as ceftaroline", "value": "4,500 M^–1s^–1"},
      {"measurement": "Kd", "setting": "PBP2a [1]; PBP2a", "value": "20 ± 4", "unit": "µM"}
    ]},
    {"smiles": "CO/N=C(\\C(=O)N[C@@H]1C(=O)N2C(C(=O)[O-])=C(C[N+]3(C)CCCC3)CS[C@H]12)c1csc(N)n1", "note": "[cefepime]", "values": [
      {"measurement": "survival rate", "setting": "MRSA USA300 [2]", "value": 40, "unit": "%"},
      {"measurement": "k2", "setting": "PBP2a [1]; PBP2a", "value": "1.5 ± 0.1", "unit": "s^–1 × 10^3"},
      {"measurement": "k2/ks", "setting": "PBP2a [1]; PBP2a", "value": "0.9 ± 0.1", "unit": "M^–1s^–1"},
      {"measurement": "k3", "setting": "PBP2a [1]; PBP2a", "value": "5.9 ± 0.5", "unit": "s^–1 × 10^6"}
    ]},
    {"smiles": "CCO/N=C(\\C(=O)N[C@@H]1C(=O)N2C(C(=O)[O-])=C(Sc3nc(-c4cc[n+](C)cc4)cs3)CS[C@H]12)c1nsc(NP(=O)(O)O)n1", "note": "[ceftaroline fosamil, reference compound]", "values": [
      {"measurement": "Asymmetry of bacterial division (number of cells)", "setting": "MRSA USA300 [3]", "value": 41},
      {"measurement": "Distortion of septa (number of cells)", "setting": "MRSA USA300 [3]", "value": 31},
      {"measurement": "Percentage of defective cells (asymmetry of bacterial division)", "setting": "MRSA USA300 [3]", "value": 46.1, "unit": "C %"},
      {"measurement": "Percentage of defective cells (distortion of septa)", "setting": "MRSA USA300 [3]", "value": 34.8, "unit": "B %"},
      {"measurement": "Percentage of defective cells (thin cell walls)", "setting": "MRSA USA300 [3]", "value": 71.9, "unit": "C %"},
      {"measurement": "Thin cell walls (number of cells)", "setting": "MRSA USA300 [3]", "value": 64},
      {"measurement": "survival rate", "setting": "MRSA USA300 [4]; 37.5 mg/kg subcutaneous", "value": 26.67, "unit": "%"},
      {"measurement": "survival rate", "setting": "MRSA USA300 [4]; 75 mg/kg subcutaneous", "value": 76.67, "unit": "%"},
      {"measurement": "inflammatory signs of lung tissue (H&E histopathology)", "setting": "MRSA USA300 [5]", "value": "significantly reduced"}
    ]},
    {"smiles": "CC(C)(O/N=C(\\C(=O)N[C@@H]1C(=O)N2C(C(=O)[O-])=C(C[n+]3ccccc3)CS[C@H]12)c1csc(N)n1)C(=O)O", "note": "[Ceftazidime]", "values": [
      {"measurement": "k2", "setting": "PBP2a [1]; PBP2a", "value": "1.0 ± 0.1", "unit": "s^–1 × 10^3"},
      {"measurement": "k2/ks", "setting": "PBP2a [1]; PBP2a", "value": "1.5 ± 0.3", "unit": "M^–1s^–1"},
      {"measurement": "k3", "setting": "PBP2a [1]; PBP2a", "value": "3.2 ± 0.2", "unit": "s^–1 × 10^6"},
      {"measurement": "Kd", "setting": "PBP2a [1]; PBP2a", "value": "671 ± 116", "unit": "µM"}
    ]},
    {"smiles": "O=C(Cc1cccs1)N[C@@H]1C(=O)N2C(C(=O)O)=C(/C=C/c3ccc([N+](=O)[O-])cc3[N+](=O)[O-])CS[C@H]12", "note": "[Nitrocefin]", "values": [
      {"measurement": "primary reaction rate constant, kn*", "setting": "PBP2a [6]; 100 μM nitrocefin, acylation of PBP2a", "value": "approximately 0.05 s^−1"},
      {"measurement": "secondary rate constant, k0, for the nonspecific hydrolysis of nitrocefin", "setting": "PBP2a [6]; in the presence of PBP2a", "value": "2.3 ± 0.14", "unit": "M⁻¹ s⁻¹"},
      {"measurement": "k2", "setting": "PBP2a [1]; PBP2a", "value": "3.7 ± 0.3", "unit": "s^–1 × 10^3"},
      {"measurement": "k2/ks", "setting": "PBP2a [1]; PBP2a", "value": "19.0 ± 3.0", "unit": "M^–1s^–1"},
      {"measurement": "k3", "setting": "PBP2a [1]; PBP2a", "value": "7.2 ± 0.1", "unit": "s^–1 × 10^6"},
      {"measurement": "Kd", "setting": "PBP2a [1]; PBP2a", "value": "192 ± 24", "unit": "µM"}
    ]},
    {"smiles": "Cc1onc(-c2ccccc2)c1C(=O)N[C@@H]1C(=O)N2[C@@H]1SC(C)(C)[C@@H]2C(=O)O", "note": "[oxacillin]", "values": [
      {"measurement": "IC50 for PBP2a", "setting": "PBP2a [7]", "value": "408 ± 6", "unit": "µg/mL"}
    ]}
  ]
}
